From ChEMBL document CHEMBL1909046, “DrugMatrix in vitro pharmacology data”

What was measured:
[1] = molecular target: Cytochrome P450 3A4 (Homo sapiens, UniProt P08684); details: bti-tn-5b1-4; note: in other assays of this panel Not Active means under 50% inhibition at 10 µM
[2] = molecular target: Protein phosphatase 3 catalytic subunit alpha (Homo sapiens, UniProt Q08209); design: species or system Escherichia coli;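 note: inhibition of calcineurin (PP2B) enzyme activity, measured with DiFMUP as the substrate; in other assays of this panel Not Active means under 50% inhibition at 10 µM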
[3] = molecular target: Melanocortin receptor 5 (Homo sapiens, UniProt P33032); assay type: cell membranes, HEK293, Membrane; details: hek293; note: in other assays of this panel Not Active means under 50% inhibition at 10 µM
Melanocortin receptor 5, sequence (P33032 whole entry): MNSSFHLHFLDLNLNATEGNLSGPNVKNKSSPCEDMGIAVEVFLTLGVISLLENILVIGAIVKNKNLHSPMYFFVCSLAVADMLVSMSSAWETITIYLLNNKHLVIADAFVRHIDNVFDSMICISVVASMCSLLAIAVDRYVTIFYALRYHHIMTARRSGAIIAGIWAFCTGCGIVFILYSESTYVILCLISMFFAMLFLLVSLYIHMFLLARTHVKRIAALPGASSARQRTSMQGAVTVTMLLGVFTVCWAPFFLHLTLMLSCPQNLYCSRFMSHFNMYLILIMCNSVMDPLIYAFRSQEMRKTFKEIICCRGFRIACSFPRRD

[4] = DRUGMATRIX: Glutamate, NMDA, Phencyclidine radioligand binding (ligand: [3H] TCP); assay type: cell membranes, Rattus norvegicus, Wistar, Cerebral cortex, Membrane; details: Not Active = under 50% inhibition at 10 µM
[5] = DRUGMATRIX: Phosphodiesterase PDE4 enzyme inhibition (substrate: [3H]cAMP + cAMP); details: u-937; Not Active = under 50% inhibition at 10 µM
[6] = molecular target: Delta-type opioid receptor (Homo sapiens, UniProt P41143); assay type: cell membranes, HEK293, Membrane; details: hek293; note: in other assays of this panel Not Active means under 50% inhibition at 10 µM
Delta-type opioid receptor, sequence (P41143 whole entry): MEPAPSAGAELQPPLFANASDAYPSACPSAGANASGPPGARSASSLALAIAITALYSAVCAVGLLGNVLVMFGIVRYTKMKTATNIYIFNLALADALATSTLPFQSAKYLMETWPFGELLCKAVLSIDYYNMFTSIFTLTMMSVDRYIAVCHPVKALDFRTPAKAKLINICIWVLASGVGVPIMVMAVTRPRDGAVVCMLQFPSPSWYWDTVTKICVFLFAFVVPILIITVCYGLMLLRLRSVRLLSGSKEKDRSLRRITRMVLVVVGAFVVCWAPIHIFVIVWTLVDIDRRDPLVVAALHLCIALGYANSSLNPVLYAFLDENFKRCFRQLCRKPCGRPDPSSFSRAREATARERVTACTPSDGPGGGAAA

[7] = molecular target: Cytochrome P450 2C19 (Homo sapiens, UniProt P33261); details: bti-tn-5b1-4; note: in other assays of this panel Not Active means under 50% inhibition at 10 µM
Cytochrome P450 2C19, sequence (P33261 whole entry): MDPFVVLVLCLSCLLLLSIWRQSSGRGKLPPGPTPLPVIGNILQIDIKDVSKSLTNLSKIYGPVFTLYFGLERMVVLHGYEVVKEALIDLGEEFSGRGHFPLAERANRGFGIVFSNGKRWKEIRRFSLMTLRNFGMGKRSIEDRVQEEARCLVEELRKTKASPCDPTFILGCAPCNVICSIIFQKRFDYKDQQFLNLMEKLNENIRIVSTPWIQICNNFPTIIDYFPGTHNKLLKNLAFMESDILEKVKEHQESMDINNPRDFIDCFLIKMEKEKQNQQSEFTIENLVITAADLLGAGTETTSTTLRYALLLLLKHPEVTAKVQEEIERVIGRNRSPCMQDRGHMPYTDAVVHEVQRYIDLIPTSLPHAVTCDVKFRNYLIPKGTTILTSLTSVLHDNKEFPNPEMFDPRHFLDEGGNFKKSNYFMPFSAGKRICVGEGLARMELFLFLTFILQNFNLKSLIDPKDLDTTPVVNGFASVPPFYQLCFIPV

Cytochrome P450 3A4, sequence (P08684 whole entry): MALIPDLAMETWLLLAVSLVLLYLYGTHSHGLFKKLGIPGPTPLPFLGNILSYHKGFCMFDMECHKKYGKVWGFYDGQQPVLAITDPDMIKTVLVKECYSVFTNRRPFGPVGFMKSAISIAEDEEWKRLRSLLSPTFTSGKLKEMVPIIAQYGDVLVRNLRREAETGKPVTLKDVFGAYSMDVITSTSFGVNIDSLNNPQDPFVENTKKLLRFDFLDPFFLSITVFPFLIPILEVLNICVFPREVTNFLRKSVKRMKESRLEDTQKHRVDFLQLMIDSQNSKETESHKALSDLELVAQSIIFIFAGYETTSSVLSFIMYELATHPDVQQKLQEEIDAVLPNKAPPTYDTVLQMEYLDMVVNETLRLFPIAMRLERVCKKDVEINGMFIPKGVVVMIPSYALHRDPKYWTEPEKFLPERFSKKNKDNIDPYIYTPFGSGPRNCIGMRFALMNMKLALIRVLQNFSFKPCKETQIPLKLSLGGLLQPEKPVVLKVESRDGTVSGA

c1ccc2c(c1)Nc1ccccc1S2 [PHENOTHIAZINE]
Not Active: IC50 [1] | Ki [1] | IC50 [2] | IC50 [3] | IC50 [4] | Ki [4] | IC50 [5] | Ki [5] | IC50 [6] | IC50 [7] | Ki [7]

ClC1=C(Cl)[C@]2(Cl)[C@@H]3[C@@H]4C[C@@H]([C@H]5O[C@@H]45)[C@@H]3[C@@]1(Cl)C2(Cl)Cl [DIELDRIN]
Not Active: IC50 [1] | Ki [1] | IC50 [2] | IC50 [3] | IC50 [4] | Ki [4] | IC50 [5] | Ki [5] | IC50 [6] | IC50 [7] | Ki [7]

CC(C)(c1ccc(O)cc1)c1ccc(O)cc1 [BISPHENOL A]
Not Active: IC50 [1] | Ki [1] | IC50 [2] | IC50 [3] | IC50 [4] | Ki [4] | IC50 [5] | Ki [5] | IC50 [6] | IC50 [7] | Ki [7]

CN(Cc1cc(Br)cc(Br)c1N)C1CCCCC1 [BROMHEXINE]
Not Active: IC50 [1] | Ki [1] | IC50 [2] | IC50 [3] | IC50 [4] | Ki [4] | IC50 [5] | Ki [5] | IC50 [6] | IC50 [7] | Ki [7]

c1ccc(Cn2ccnc2)cc1
Not Active: IC50 [1] | Ki [1] | IC50 [2] | IC50 [3] | IC50 [4] | Ki [4] | IC50 [5] | Ki [5] | IC50 [6] | IC50 [7] | Ki [7]

CCO [ALCOHOL]
Not Active: IC50 [1] | Ki [1] | IC50 [2] | IC50 [3] | IC50 [4] | Ki [4] | IC50 [5] | Ki [5] | IC50 [6] | IC50 [7] | Ki [7]

CCN1CCN(C(=O)N[C@@H](C(=O)N[C@@H]2C(=O)N3[C@@H]2SC(C)(C)[C@@H]3C(=O)O)c2ccccc2)C(=O)C1=O [PIPERACILLIN]
Not Active: IC50 [1] | Ki [1] | IC50 [2] | IC50 [3] | IC50 [4] | Ki [4] | IC50 [5] | Ki [5] | IC50 [6] | IC50 [7] | Ki [7]

NC(=O)NC(=O)Cc1ccccc1 [PHENACEMIDE]
Not Active: IC50 [1] | Ki [1] | IC50 [2] | IC50 [3] | IC50 [4] | Ki [4] | IC50 [5] | Ki [5] | IC50 [6] | IC50 [7] | Ki [7]

CC(CN1c2ccccc2Sc2ccccc21)N(C)C (centres undefined) [PROMETHAZINE]
Not Active: IC50 [1] | Ki [1] | IC50 [2] | IC50 [3] | IC50 [4] | Ki [4] | IC50 [5] | Ki [5] | IC50 [6] | IC50 [7] | Ki [7]

Nc1ccc(Cc2ccc(N)cc2)cc1
Not Active: IC50 [1] | Ki [1] | IC50 [2] | IC50 [3] | IC50 [4] | Ki [4] | IC50 [5] | Ki [5] | IC50 [6] | IC50 [7] | Ki [7]

CC[C@H]1OC(=O)[C@H](C)[C@@H](O[C@H]2C[C@@](C)(OC)[C@@H](O)[C@H](C)O2)[C@H](C)[C@@H](O[C@@H]2O[C@H](C)C[C@H](N(C)C)[C@H]2O)[C@](C)(O)C[C@@H](C)C(=O)[C@H](C)[C@@H](O)[C@]1(C)O [ERYTHROMYCIN]
Not Active: IC50 [1] | Ki [1] | IC50 [2] | IC50 [3] | IC50 [4] | Ki [4] | IC50 [5] | Ki [5] | IC50 [6] | IC50 [7] | Ki [7]

C[N+](C)(C)CCOP(=O)([O-])OC[C@H](O)CO
Not Active: IC50 [1] | Ki [1] | IC50 [2] | IC50 [3] | IC50 [4] | Ki [4] | IC50 [5] | Ki [5] | IC50 [6] | IC50 [7] | Ki [7]

Clc1cc(Cl)c(OCC#CI)cc1Cl [HALOPROGIN]
Not Active: IC50 [1] | Ki [1] | IC50 [2] | IC50 [3] | IC50 [4] | Ki [4] | IC50 [5] | Ki [5] | IC50 [6] | IC50 [7] | Ki [7]

Cc1cc(C(C)(C)C)c(O)c(C)c1CC1=NCCN1 [OXYMETAZOLINE]
Not Active: IC50 [1] | Ki [1] | IC50 [2] | IC50 [3] | IC50 [4] | Ki [4] | IC50 [5] | Ki [5] | IC50 [6] | IC50 [7] | Ki [7]

C[N+](C)(C)CCOC(N)=O.[Cl-] [CARBACHOL]
Not Active: IC50 [1] | Ki [1] | IC50 [2] | IC50 [3] | IC50 [4] | Ki [4] | IC50 [5] | Ki [5] | IC50 [6] | IC50 [7] | Ki [7]

O=C1c2ccccc2C(=O)C1c1ccccc1 [PHENINDIONE]
Not Active: IC50 [1] | Ki [1] | IC50 [2] | IC50 [3] | IC50 [4] | Ki [4] | IC50 [5] | Ki [5] | IC50 [6] | IC50 [7] | Ki [7]

NC(N)=Nc1nc(CSCCC(N)=NS(N)(=O)=O)cs1 [FAMOTIDINE]
Not Active: IC50 [1] | Ki [1] | IC50 [2] | IC50 [3] | IC50 [4] | Ki [4] | IC50 [5] | Ki [5] | IC50 [6] | IC50 [7] | Ki [7]

Cc1ccnc2c1NC(=O)c1cccnc1N2C1CC1 [NEVIRAPINE]
Not Active: IC50 [1] | Ki [1] | IC50 [2] | IC50 [3] | IC50 [4] | Ki [4] | IC50 [5] | Ki [5] | IC50 [6] | IC50 [7] | Ki [7]

CO[C@H]1O[C@@H]2O[C@@]3(C)CC[C@H]4[C@H](C)CC[C@@H]([C@H]1C)[C@@]24OO3
Not Active: IC50 [1] | Ki [1] | IC50 [2] | IC50 [3] | IC50 [4] | Ki [4] | IC50 [5] | Ki [5] | IC50 [6] | IC50 [7] | Ki [7]
